Measurements reported in patent US5422341A, “Motilin-like polypeptides with gastrointestinal motor stimulating activity” (Ohmeda Pharmaceutical Products Division Inc., priority 1993, dated 1995).
Structures can show the parent of a compound that is named as a salt. Square brackets hold non-standard residues; d marks the D form. Peptide text beside a SMILES is read from it. * marks the point of attachment. X1 = C[N+](C)(C)[C@@H](Cc1ccccc1)C(=O)*; NMe2Phe = CN(C)[C@@H](Cc1ccccc1)C(=O)*; NMeF = CN[C@@H](Cc1ccccc1)C(=O)O

What was measured:
motilin receptor = molecular target: T1, motilin receptor (Oryctolagus cuniculus, UniProt G1T803); assay: Determination of motilin receptor binding affinity (displacement of [125I-Tyr7, Nle13]motilin(porcine)); parameters: species or system rabbit; settings: negative logarithm of the concentration displacing 50% of [125I-Tyr7, Nle13]motilin(porcine) from rabbit antral smooth muscle membranes; read-out: pIC50 (converted)
T1 construct: from tissue; host or cells: rabbit antral smooth muscle membranes
T1 sequence (G1T803 1-400): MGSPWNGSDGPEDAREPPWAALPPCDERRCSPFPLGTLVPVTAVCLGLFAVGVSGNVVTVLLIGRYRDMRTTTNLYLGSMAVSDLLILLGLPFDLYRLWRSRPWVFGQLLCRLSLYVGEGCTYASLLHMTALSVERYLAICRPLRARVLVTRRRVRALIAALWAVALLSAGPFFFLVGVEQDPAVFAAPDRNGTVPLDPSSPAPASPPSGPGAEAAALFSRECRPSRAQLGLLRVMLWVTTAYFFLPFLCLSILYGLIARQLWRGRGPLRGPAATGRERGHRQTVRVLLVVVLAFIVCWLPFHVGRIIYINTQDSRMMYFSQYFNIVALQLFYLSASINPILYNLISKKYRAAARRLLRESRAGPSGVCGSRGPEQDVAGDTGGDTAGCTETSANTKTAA
Procedure: The motilin receptor binding affinity of the peptides of this invention was determined by using the general procedure of Bormans, Peelers and Vantrappen, Regul. […] Fitting was performed using the iterative least-squares procedure of the SAS-software package (SAS Institute, Inc., Cary, N.C., USA).

[1] = molecular target: segments of rabbit duodenum (Oryctolagus cuniculus, UniProt G1T803); assay: Rabbit duodenal smooth muscle strip tissue bath assay; format: cell-based; settings: negative logarithm of the dose giving 50% of the maximal response to motilin; isotonic contraction of rabbit duodenum segments
Sequence of segments of rabbit duodenum (G1T803 1-400): as above
Summary of the method: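 Isotonic contraction of rabbit duodenal segments after 1 h equilibration and 10^-4 M acetylcholine challenge; cumulative compound curve over 10^-11 to 10^-4 M, then 10^-7 M motilin. Runs discarded if final acetylcholine response differed >5%. EC50 at 50% of maximal motilin response, reported as pEC50.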

[2] = format: in vitro ADME, hog; settings: pH 7
Procedure: Like most small linear polypeptides, motilin is believed to be metabolized lo by the brush border cells of the kidney. Therefore, kidney homogenate was chosen as the model system for assessing the relative in vivo biostability of the peptides of this invention. All peptides to be studied were incubated in hog kidney (Pel Freeze, Inc., Rogers, Ark.) (2% w/v; final volume=4 ml; buffer=HEPES pH 7.0) at 25° C. Both initial substrate concentration and internal standard (Fmoc-Gly) concentration were 0.5 mg/ml. In order to determine suitable incubation times and sampling intervals, two experiments were conducted with each polypeptide. The first run served as a rough estimate of peptide stability. All sampling was performed in duplicate. Sample volume was 180 μl.
Sample clean-up was performed by addition of 20 μl of 100% TCA (final volume=200 μl; final TCA concentration=10%). The sample was vortexed for from 5 to 10 seconds to ensure equilibration, then centrifuged to spin out the precipitated proteins. Analysis was carried out on a Waters HPLC system with a WISP autoinjector, a 5μ Vydac C-18 analytical column, and a Waters 481 UV detector set at 214 nm. Injection volume was 80 μl. Initial solvent conditions were […] in Milli-Q water with a 35 minute gradient running to 63% acetonitrile/37% (0.1%) TFA at 1 ml/min.
Polypeptide substrate and metabolite peaks were ratioed to the internal standard and the duplicate sample ratios were averaged. The avenge ratio for the peptide substrate was expressed as a percentage and plotted versus time. First-order kinetics was assumed for data treatment. The rate of disappearance of the substrate was calculated using the Enzfitter program (Biosoft). Relative half-lives were determined from the relationship: […]

[3] = system: canine gastrointestinal tract; assay: Contractile activity in the canine gastrointestinal tract; format: in vivo, dog; settings: anesthetized dogs, intra-arterial injection to a duodenal segment; amount giving 50% of the calibration response to field stimulation
Procedure: Mongrel dogs of either sex were anesthetized with sodium pentobarbital 65 mg/kg intravenously. A mid-line incision was made in the abdomen. A duodenal segment was located, the terminal arteries to that segment were identified, and the closest possible artery of the appropriate size was rubbed clean of fat and fascia. A needle of suitable diameter was bent at an angle and the tip inserted in the cleaned artery. The needle was held in position in the artery for approximately 30 seconds until vascular spasm has relaxed and then a catheter assembly was inserted into the artery and tied into position with 000 silk sutures. The fine polyethylene catheter (10-15 cm) was cut to a point at one end with a needle inserted at the other end. The hub of the needle was fitted with a 3-way stopcock and the catheter assembly was filled with heparinized Krebs Ringer bicarbonate containing 10 mM glucose. A bolus of Krebs (free of air) was injected into the arterial catheter and the distribution of blanching in the segment noted. If the area was too large, collateral arteries may be tied off as long as circulation to the area was maintained. A Bass type strain gauge was then sutured to the serosa, and oriented so that circular muscle contractions can be recorded on a Beckman R611 dynograph. Silver wire electrodes were inserted subserosally on either side of the strain gauge and were connected through stimulus isolation units to a Grass S88 electrical stimulator. Electrical field stimulation was applied at 40 V 0.5 ms and 5 pps and the amplitude of the pen recorder was set to contain the contractile response.
All peptides to be injected were dissolved in Krebs and serial dilutions were prepared so that for any concentration the maximum volume to be injected was 1 ml. All solutions except stock Krebs were held on ice for the day of the experiment and discarded at the end of the day. For determination of a dose-response curve, the site was first injected with a bolus of approximately 1 ml of heparinized Krebs to provide a flush control. Peptide agonists (in volumes of 1 ml flushed with 1 ml of Krebs) were injected in logarithmic increments until a response which was maximal in amplitude was obtained. The injection site was then flushed with Krebs containing 0.1% BSA to displace any peptide remaining in the arterial line. For peptides acting at the motilin receptor, care was taken not to inject supramaximal doses as these will induce tachyphylaxis. Therefore, as responses become apparent, 0.3 or 0.5 log unit increments were used. A site was used for a dose-response determination only every 1/2 to 1 hour.
The amplitude of the calibration response to field stimulation in each site was measured and used as 100% for that site. The amplitude of the response to the agonist at each dose was determined, calculated as a % of the calibration response and plotted against the concentration. The ED50 of the response represents the amount of agonist required to produce a response which was 50% of the calibration response.

IC50 (motilin receptor) [nM]	pEC50 [1]	T1/2 [2]	Compound	ED50 [3] [nmol]
1.95	7.39	104	CC[C@H](C)[C@H](NC(=O)[C@@H]1CCCN1C(=O)[C@@H](NC(=O)[C@H](Cc1ccccc1)[N+](C)(C)C)C(C)C)C(=O)N[C@@H](Cc1ccccc1)C(=O)N[C@H](C(=O)N[C@@H](Cc1ccc(O)cc1)C(=O)NCC(=O)N[C@@H](CCC(=O)O)C(=O)N[C@@H](CC(C)C)C(=O)N[C@@H](CCC(N)=O)C(=O)N[C@H](CCCNC(=N)N)C(=O)N[C@@H](CC(C)C)C(=O)N[C@H](CCC(N)=O)C(N)=O)[C@@H](C)O (X1-VPIFTYGELQ[dR]L[dQ]-NH2)	–
–	–	41	CC[C@H](C)[C@H](NC(=O)[C@@H]1CCCN1C(=O)[C@@H](NC(=O)[C@H](Cc1ccccc1)NC)C(C)C)C(=O)N[C@@H](Cc1ccccc1)C(=O)N[C@H](C(=O)N[C@@H](Cc1ccc(O)cc1)C(=O)NCC(=O)N[C@@H](CCC(=O)O)C(=O)N[C@@H](CC(C)C)C(=O)N[C@@H](CCC(N)=O)C(=O)N[C@H](CCCNC(=N)N)C(=O)N[C@@H](CC(C)C)C(=O)N[C@@H](CCCCN)C(N)=O)[C@@H](C)O (H-[NMeF]VPIFTYGELQ[dR]LK-NH2)	0.025
0.447	7.80	–	CC[C@H](C)[C@H](NC(=O)[C@H](C)NC(=O)[C@@H](NC(=O)[C@H](Cc1ccccc1)NC)C(C)C)C(=O)N[C@@H](Cc1ccccc1)C(=O)N[C@H](C(=O)N[C@@H](Cc1ccc(O)cc1)C(=O)NCC(=O)N[C@@H](CCC(=O)O)C(=O)N[C@@H](CC(C)C)C(=O)N[C@@H](C)C(=O)N[C@H](CCCNC(=N)N)C(=O)N[C@@H](CC(C)C)C(=O)N[C@H](CCCCN)C(N)=O)[C@@H](C)O [[1-N-Methylphenylalanine, 3-alaninc, 11-alanine, 12-D-arginine, 13-Leucine, 14-D-lysine]motilin-(1-14)-peptide Amide (Porcine) Tris-trifluoroacetate Salt] (H-[NMeF]VAIFTYGELA[dR]L[dK]-NH2)	0.024
2.63	7.64	12.8	CC[C@H](C)[C@H](NC(=O)[C@@H]1CCCN1C(=O)[C@@H](NC(=O)[C@H](Cc1ccccc1)NC)C(C)C)C(=O)N[C@@H](Cc1ccccc1)C(=O)N[C@H](C(=O)N[C@@H](Cc1ccc(O)cc1)C(=O)NCC(=O)N[C@@H](CCC(=O)O)C(=O)N[C@@H](CC(C)C)C(=O)N[C@@H](CCC(N)=O)C(=O)N[C@@H](CCCNC(=N)N)C(=O)N[C@@H](CC(C)C)C(=O)N[C@@H](CCC(N)=O)C(=O)O)[C@@H](C)O [[N-MePhe^1, Leu^13]pMOT(1-14)] (H-[NMeF]VPIFTYGELQRLQ-OH)	–
–	–	131.9	CC[C@H](C)[C@H](NC(=O)[C@@H]1CCCN1C(=O)[C@@H](NC(=O)[C@H](Cc1ccccc1)[N+](C)(C)C)C(C)C)C(=O)N[C@@H](Cc1ccccc1)C(=O)N[C@H](C(=O)N[C@@H](Cc1ccc(O)cc1)C(=O)NCC(=O)N[C@@H](CCC(=O)O)C(=O)N[C@@H](CC(C)C)C(=O)N[C@@H](C)C(=O)N[C@H](CCCNC(=N)N)C(=O)N[C@@H](CC(C)C)C(=O)N[C@@H](CCC(N)=O)C(N)=O)[C@@H](C)O (X1-VPIFTYGELA[dR]LQ-NH2)	0.026
1.23	7.64	–	CC[C@H](C)[C@H](NC(=O)[C@@H]1CCCN1C(=O)[C@@H](NC(=O)[C@H](Cc1ccccc1)N(C)C)C(C)C)C(=O)N[C@@H](Cc1ccccc1)C(=O)N[C@H](C(=O)N[C@@H](Cc1ccc(O)cc1)C(=O)NCC(=O)N[C@@H](CCC(=O)O)C(=O)N[C@@H](CC(C)C)C(=O)N[C@@H](C)C(=O)N[C@H](CCCNC(=N)N)C(=O)N[C@@H](CC(C)C)C(=O)N[C@@H](CCCCN)C(N)=O)[C@@H](C)O (NMe2Phe-VPIFTYGELA[dR]LK-NH2)	0.003
1.15	7.55	–	CC[C@H](C)[C@H](NC(=O)[C@H](C)NC(=O)[C@@H](NC(=O)[C@H](Cc1ccccc1)[N+](C)(C)C)C(C)C)C(=O)N[C@@H](Cc1ccccc1)C(=O)N[C@H](C(=O)N[C@@H](Cc1ccc(O)cc1)C(=O)NCC(=O)N[C@@H](CCC(=O)O)C(=O)N[C@@H](CC(C)C)C(=O)N[C@@H](C)C(=O)N[C@H](CCCNC(=N)N)C(=O)N[C@@H](CC(C)C)C(=O)N[C@H](CCCCN)C(N)=O)[C@@H](C)O (X1-VAIFTYGELA[dR]L[dK]-NH2)	0.007
0.724	7.77	–	CC[C@H](C)[C@H](NC(=O)[C@H](C)NC(=O)[C@@H](NC(=O)[C@H](Cc1ccccc1)NC)C(C)C)C(=O)N[C@@H](Cc1ccccc1)C(=O)N[C@H](C(=O)N[C@@H](Cc1ccc(O)cc1)C(=O)NCC(=O)N[C@@H](CCC(=O)O)C(=O)N[C@@H](CC(C)C)C(=O)N[C@@H](C)C(=O)N[C@H](CCCNC(=N)N)C(=O)N[C@@H](CC(C)C)C(=O)N[C@@H](CCCCN)C(N)=O)[C@@H](C)O (H-[NMeF]VAIFTYGELA[dR]LK-NH2)	0.001
1.91	7.32	–	CC[C@H](C)[C@H](NC(=O)[C@H](C)NC(=O)[C@@H](NC(=O)[C@H](Cc1ccccc1)[N+](C)(C)C)C(C)C)C(=O)N[C@@H](Cc1ccccc1)C(=O)N[C@H](C(=O)N[C@@H](Cc1ccc(O)cc1)C(=O)NCC(=O)N[C@@H](CCC(=O)O)C(=O)N[C@@H](CC(C)C)C(=O)N[C@@H](CCC(N)=O)C(=O)N[C@H](CCCNC(=N)N)C(=O)N[C@@H](CC(C)C)C(=O)N[C@@H](CCCCN)C(N)=O)[C@@H](C)O (X1-VAIFTYGELQ[dR]LK-NH2)	0.89
1.17	7.73	–	CC[C@H](C)[C@H](NC(=O)[C@@H]1CCCN1C(=O)[C@@H](NC(=O)[C@H](Cc1ccccc1)N(C)C)C(C)C)C(=O)N[C@@H](Cc1ccccc1)C(=O)N[C@H](C(=O)N[C@@H](Cc1ccc(O)cc1)C(=O)NCC(=O)N[C@@H](CCC(=O)O)C(=O)N[C@@H](CC(C)C)C(=O)N[C@@H](CCC(N)=O)C(=O)N[C@H](CCCNC(=N)N)C(=O)N[C@@H](CC(C)C)C(=O)N[C@@H](CCCCN)C(N)=O)[C@@H](C)O (NMe2Phe-VPIFTYGELQ[dR]LK-NH2)	0.002
1.91	7.59	–	CC[C@H](C)[C@H](NC(=O)[C@H](C)NC(=O)[C@@H](NC(=O)[C@H](Cc1ccccc1)[N+](C)(C)C)C(C)C)C(=O)N[C@@H](Cc1ccccc1)C(=O)N[C@H](C(=O)N[C@@H](Cc1ccc(O)cc1)C(=O)NCC(=O)N[C@@H](CCC(=O)O)C(=O)N[C@@H](CC(C)C)C(=O)N[C@@H](C)C(=O)N[C@H](CCCNC(=N)N)C(=O)N[C@@H](CC(C)C)C(=O)N[C@@H](CCCCN)C(N)=O)[C@@H](C)O (X1-VAIFTYGELA[dR]LK-NH2)	0.001
